# Square brackets hold non-standard residues; d marks the D form.
# B1: human β2-GPI: commercially-available human β2-GPI (SEQ ID NO. 15), whole molecule (protein, listed as Homo sapiens)
# chain: MISPVLILFSSFLCHVAIAGRTCPKPDDLPFSTVVPLKTFYEPGEEITYSCKPGYVSRGGMRKFICPLTGLWPINTLKCTPRVCPFAGILENGAVRYTTFEYPNTISFSCNTGFYLNGADSAKCTEEGKWSPELPVCAPIICPPPSIPTFATLRVYKPSAGNNSLYRDTAVFECLPQHAMFGNDTITCTTHGNWTKLPECREVKCPFPSRPDNGFVNYPAKPTLYYKDKATFGCHDGYSLDGPEEIECTKLGNWSAMPSCKASCKVPVKKATVVYQGERVKIQEKFKNGMLHGDKVSFFCKNKEKKCSYTEDAQCIDGTIEVPKCFKEHSSLAFWKTDASDVKPC
# Tests used:
# C57Bl/6 mice [1] = experiment: Intestinal ischemia/reperfusion, mucosal injury score; format: in vivo, mouse; details: C57Bl/6 mice, peptide 40 μM i.v. 5 min prior to ischemia, 2 hours reperfusion
# Method: (§1) C57Bl/6 and Rag-1^−/− mice were subjected to ischemia followed by reperfusion similar to previously described studies (Moses, T. et al., J. Leukoc. Biol. 86:971-980 (2009)). Briefly, ketamine (16 mg/kg) and xylazine (80 mg/kg) were used to anesthetize the mice. Buprenorphine (0.06 mg/kg) was then administered for pain. A midline laparotomy was performed to expose the abdominal cavity of the mice, which were then allowed to equilibrate for 30 min. Body temperature was maintained at 37° C. using a water-circulating heat pad. Placing a warm, saline moistened piece of gauze over the abdominal cavity prevented peritoneal desiccation. […] Ischemia was noted by the intestine changing from a pink color to a gray color. After 30 min of ischemia, the clamp was removed and the intestines were allowed to reperfuse for 5, 10, 15, or 120 min. […] Mice treated with the various β2-GPI peptides underwent the same procedure with i.v. administration of the peptides (40 μM) 5 min prior to artery occlusion. Peptides 296, 305, and 296Cys to Ser were dissolved in N. Saline (0.9% NaCl) and injected i.v. in 100-μL volumes. Peptides 100 and 181 were dissolved in DMSO prior to diluting 1/100 in N. Saline. Additional mice received peptides prior to Sham treatment.
# Immediately after euthanasia, a 2-cm mid jejunum tissue section was immediately fixed in 10% buffered formalin, embedded in paraffin, and 8 μm sections were cut transversely and hematoxylin and eosin (H&E) stained. Mucosal injury was graded on a six-tiered scale, as described previously (Fleming, S. D. et al., J. Immunol. 169:2126-2133 (2002)). Briefly, the average damage score of the intestinal section (75-150 villi) was determined after grading each villus. […] Photomicrographs were obtained from H&E stained slides using a 20×, 0.5 Plan Fluor objective on a Nikon 80i microscope and images acquired at room temperature using a Nikon DS-5M camera with DS-L2 software.
# Ischemia/reperfusion was performed on ketamine/xylazine anesthetized mice as described in Example 1 above. After 2 hours of reperfusion, the mice were euthanized and sera, liver, spleen, and 2 cm sections of the small intestine, approximately 10 cm distal to the gastroduodenal junction, were collected for histological and other analyses. Mice treated with the various β2-GPI peptides underwent the same procedure with i.v. administration of the peptides. Most studies assumed 2 mL total blood volume in a mouse and administered peptides to a final concentration of 40 μM at 5 min prior to ischemia. Dose response studies administered 1-40 μM peptide at 5 min prior to ischemia and time course studies administered 40 μM peptide at 5 min prior to ischemia, and at 15-, 30- or 60-min post-ischemia (i.e., during reperfusion).
# After euthanasia, tissue sections were fixed and stained following the procedures outlined in Example 1. Mucosal injury (SMI) was also graded on a six-tiered scale, as described in Example 1.
# C3 = experiment: Intestinal IR, C3 deposition immunohistochemistry; format: in vivo, mouse; details: C57Bl/6 mice, peptide infused prior to IR
# Method: as §1
# After euthanasia, an additional 2-cm intestinal section from each mouse was immediately snap frozen in O.C.T. freezing medium and 8 μm sections were placed on slides for immunohistochemistry. The C3 deposition and F4/80 expression on the tissue sections were detected by staining with a purified rat-anti-mouse C3 (Hycult Biotechnologies; Plymouth Meeting, Pa.) or F4/80 (eBioscience; San Diego, Calif.) antibody followed by a Texas-red conjugated donkey-anti-rat IgG secondary antibody (Jackson Immunoresearch). CD31 (PECAM-1) and CD106 (VCAM-1) were detected by FITC conjugated rat anti-mouse CD31 or CD106 (Biolegend; San Diego, Calif.) antibodies. Each experiment contained serial sections stained with the appropriate isotype control antibodies. All slides were mounted with ProLong Gold (Invitrogen). Images were obtained at room temperature using a Nikon Eclipse 80i microscope equipped with a CoolSnap CF camera (Photometrics) and analyzed using Metavue software (Molecular Devices). The fluorescence was semi-quantitated using Image J software (NIH) using the fluorescent area fraction after setting threshold for each experiment. The average of the isotype control was subtracted from each photo.
# PGE2 = experiment: Intestinal IR, ex vivo PGE2 generation; format: in vivo, mouse; details: C57Bl/6 mice, peptide 40 μM prior to IR
# Method: C57Bl/6 and Rag-1^−/− mice were subjected to ischemia followed by reperfusion similar to previously described studies (Moses, T. et al., J. Leukoc. Biol. 86:971-980 (2009)). Briefly, ketamine (16 mg/kg) and xylazine (80 mg/kg) were used to anesthetize the mice. Buprenorphine (0.06 mg/kg) was then administered for pain. A midline laparotomy was performed to expose the abdominal cavity of the mice, which were then allowed to equilibrate for 30 min. Body temperature was maintained at 37° C. using a water-circulating heat pad. Placing a warm, saline moistened piece of gauze over the abdominal cavity prevented peritoneal desiccation. […] Ischemia was noted by the intestine changing from a pink color to a gray color. After 30 min of ischemia, the clamp was removed and the intestines were allowed to reperfuse for 5, 10, 15, or 120 min. […] Peptides 296, 305, and 296Cys to Ser were dissolved in N. Saline (0.9% NaCl) and injected i.v. in 100-μL volumes. Peptides 100 and 181 were dissolved in DMSO prior to diluting 1/100 in N. Saline. Additional mice received peptides prior to Sham treatment.
# (§2) Ex vivo generation of eicosanoids by mid-jejunal tissue was determined. Immediately after collection, a 2-cm intestinal section from each mouse was minced, washed, resuspended in 37° C. oxygenated Tyrode's buffer (Sigma-Aldrich; St. Louis, Mo.), incubated at 37° C. for 20 minutes, and the supernatant collected. PGE2 and LTB4 concentrations were determined using enzyme immunoassay kits (Cayman Chemical; Ann Arbor, Mich.). IL-6 and IL-12 concentrations were determined using a Milliplex MAP immunoassay kit (Millipore) and read on a Milliplex Analyzer (Millipore). All eicosanoid and cytokine concentrations were standardized to the total tissue protein content.
# (§3) Total peroxidase, LTB4, PGE2, IL-6, IL-12p40, and IL-12p70 concentrations were determined using the procedures described in Example 1.
# LTB4 = experiment: Intestinal IR, ex vivo LTB4 generation; format: in vivo, mouse; details: C57Bl/6 mice, peptide 40 μM prior to IR
# Method: as §1, §2, §3
# [2] = system: thioglycollate-elicited macrophages, nitric oxide; experiment: β2-GPI stimulated macrophage nitric oxide production; format: cell-based; details: mouse β2-GPI 10 μg/mL, peptide 40 μM, 18 hours
# Method: C57Bl/6 mice were injected i.p. with 1 mL thioglycollate (4%) 4 days prior to peritoneal lavage. Peritoneal exudate macrophages or the B cell line, LK35.2, were seeded at 2×10^6 cells/mL in 24-well or 96-well plates. After macrophage adherence, both cell types were treated with mouse β2-GPI (10 μg/mL) with or without peptide (40 μM). Additional cells were unstimulated as a negative control or stimulated with 10 μg/mL LPS (E. coli 055B5) as a positive control. Supernatants were collected 18-20 hours after stimulation and analyzed for nitrite by Griess reagent (Hoffman & Fleming, Cell Biochem. Funct. 28:686-694 (2010)) or IL-6 by Milliplex MAP kit (Millipore) following the manufacturer's instructions using a Luminex 200 with xPONENT 3.1 and Analyst software (Millipore).
# C57Bl/6 mice [3] = experiment: Intestinal ischemia/reperfusion, mucosal injury score; format: in vivo, mouse; details: Example 3, human β2-GPI in N. saline at 0.5-μg, 1-μg and 5-μg
Molecule,IR-induced intestinal mucosal damage (injury score) (C57Bl/6 mice [1]),C3 deposition / complement activation after IR (C3),IR-induced intestinal PGE2 production (PGE2),IR-induced intestinal LTB4 production (LTB4),β2-GPI-induced nitric oxide production [2],IR-induced intestinal injury (C57Bl/6 mice [3])
"H-GNDTVMCTEQQN-NH2 [peptide 181, 17, reference compound]",IR-induced intestinal damage similar to untreated mice,,,,,
"H-SHAEVTYSS-OH (H-[dS][dH][dA][dE][dV][dT][dY][dS][dS]-OH; also: retro-inverso) [peptide Retro-inverso D-p9, 13]",attenuated,few to no C3 deposits,attenuated,attenuated,,
"H-SKNKEKK-NH2 [peptide p7, 11]",attenuate actual epithelial injury more effectively,,returned PGE2 concentrations to those found in Sham treated animals,,,
"H-SSYTVEAHS-NH2 [peptide p9, 12]",attenuated,significantly less deposition,attenuated,attenuated,significantly attenuated,
"H-SSYTVEAHS-OH (H-[dS][dS][dY][dT][dV][dE][dA][dH][dS]-OH; SMILES CC(C)[C@@H](NC(=O)[C@H](NC(=O)[C@@H](Cc1ccc(O)cc1)NC(=O)[C@@H](CO)NC(=O)[C@H](N)CO)[C@H](C)O)C(=O)N[C@H](CCC(=O)O)C(=O)N[C@H](C)C(=O)N[C@H](Cc1c[nH]cn1)C(=O)N[C@H](CO)C(=O)O) [peptide D-p9, p9 synthesized with D-amino acids]",attenuated,,attenuated,did not,,
B1,,,,,,effective at attenuating

# Reference: patent publication US8895502B2, “β2-glycoprotein I peptide inhibitors” (Kansas State University Research Foundation, priority 2010, dated 2014)
